For test [1], the system named is U373 cells. The test can be described thus: Chemoresistance to TMZ (rate of living cells, absorbance) in glioma cell line U373. The class given is cell-based, human. The protocol:
The experiment was carried out by inoculating the glioma cell line on a 96-well plate at the rate of 100 cells per well and adding TMZ at varying concentration ranging from 0 to 20 μM to each well after 5 hours of inoculation. After the plate was incubated for 6 days, absorbance at 450 nm was measured […]. The rate of living cells was expressed by percentage (%) at the defined concentrations of TMZ by setting the concentration rate of 0 μM as a control and as a standard rate of the living cells at the respective TMZ concentrations. […] In other words, it was found in the glioma cell line that the chemoresistance was increased to a higher extent as the variation expression amounts of vimentin were higher.
This experiment was implemented by inoculating a 6-well plate with glioma cells at the rate of 10^6 cells per well, followed by introduction of a vimentin siRNA or a control siRNA into the cells using lipofectamin 2000 after 24 hours of inoculation. […] After the plate was incubated for 6 days, absorbance at 450 nm was measured […]. […]
This experiment was implemented to investigate an influence of the PAK1-induced vimentin phosphorylation on the sensitivity to anticancer agents in the glioma cell line. […] After incubation for 6 days, the portion having absorbance at 420 nm was measured […]. The rate of living cells was expressed by percentage (%) at every set TMZ concentration by setting the TMZ concentration of 0 μM and absorbance for the stimulation with the PAK inhibitor as a standard living cell rate for the respective TMZ concentrations. […]
This experiment was carried out by inoculating a 96-well plate with the glioma cell line at the rate of 100 cells per well, followed by stimulation with 1 μM of Calpi or 1 μM of A23187 after 5 hours of inoculation and addition of TMZ at concentrations varying from 0 μM to 40 μM. After the glioma cell line was incubated for 6 days, the portion having absorbance at 420 nm was measured. […]

Test [2] has as its system calpain. As to the kind of experiment: Fragmentation of vimentin in glioma cell line U373 by Western blotting. The class given is cell-based, human. The text has this:
In this experiment, calpain was activated A23187 (a calcium ionophor). After the glioma cell line U373 was stimulated with the calpain inhibitor and then confirmed by Western blotting. […] Therefore, it was confirmed that vimentin is cleaved with calpain.
It is known that, although the N-terminal serine residue of group A can be acetylated, the N-terminal amino acid sequence of the vimentin fragments of groups B, C and D, respectively, can be cleaved by calpain (FIGS. 41d, 45). Therefore, in order to confirm the phosphorylation of vimentin and the cleavage of the N-terminal vimentin with PAK1 and calpain, respectively, a pattern of the vimentin spots with GFP-vimentin (1-464.aa full length) overexpressed in the U373 glioma cell line was analyzed by 2D Western blotting using an anti-C-terminal vimentin antibody. […] Further, the particular fragmentation of vimentin was suppressed with the calpain inhibitor (FIG. 27).

As for `CNc1ccc2oc(C[C@H]3O[C@@]4(CC[C@H]3C)O[C@H]([C@H](C)C(=O)c3ccc[nH]3)[C@H](C)C[C@H]4C)nc2c1C(=O)O` [A23187], in test [1] (U373 cells, 1 μM A23187, TMZ 20 and 40 μM, 6 days, vs control), the “resistance to anticancer agents (rate of living cells)” value is “upregulated the resistance to anticancer agents significantly”. Further, the fragmentation of vimentin result in test [2] is reported as “enhanced the fragmentation”.

For the compound `NCCc1c[nH]c2ccc(O)cc12` [serotonin], the “medicine resistance of the U373 glioma cells” value in test [1] (FIG. 33, stimulation plus TMZ) is reported as “upregulated the medicine resistance”. Further, in test [1] (glioma cell line, 3 μg/ml ephrin A1 or 30 μM serotonin, TMZ 5, 10, 20 and 40 μM, 6 days, vs control), the “sensitivity to anticancer agents (rate of living cells)” value was “upregulated”.

For the origin of these results see patent US20130023574A1, “METHOD FOR GENERATING DATA SET FOR INTEGRATED PROTEOMICS, INTEGRATED PROTEOMICS METHOD USING DATA SET FOR INTEGRATED PROTEOMICS THAT IS GENERATED BY THE GENERATION METHOD, AND METHOD FOR IDENTIFYING CAUSATIVE SUBSTANCE USING SAME” (National University Corporation Kumamoto University, priority 2010, published 2013).
